Assay results taken from the supplement of paper PMC10307832.

What was measured:
Assay in all cases: relative viability (nuclei count vs DMSO), 5 days (fraction); higher = more cells survive
ChaGo-K-1 = tested on: ChaGo-K-1
Method in brief: (§1)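 Nuclei were stained with Hoechst during a one-step fixation (final 0.05% Triton X-100, 1% formaldehyde, 1 ug/ml Hoechst) carried out 5 days after dosing, then counted on 4× images. The cells, lung cancer lines in 1536-well plates, had been dosed by pin tool the day after seeding with one drug alone or a fixed anchor-drug dose plus five library-drug doses (not always all listed) in √10 steps. Relative viability is the nuclei count in treated wells divided by that in vehicle wells, and each value is the median of duplicate plates.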

EMC-BAC-2 = tested on: EMC-BAC-2
Method in brief: as §1

EPLC-272H = tested on: EPLC-272H
Method in brief: as §1

H3255 = tested on: H3255
Method in brief: as §1

HCC-44 = tested on: HCC-44
Method in brief: as §1

HCC-827 = tested on: HCC-827
Method in brief: as §1

LCLC-103H = tested on: LCLC-103H
Method in brief: as §1

LCLC-97TM1 = tested on: LCLC-97TM1
Method in brief: as §1

NCI-H1355 = tested on: NCI-H1355
Method in brief: as §1

NCI-H1395 = tested on: NCI-H1395
Method in brief: as §1

NCI-H1563 = tested on: NCI-H1563
Method in brief: as §1

NCI-H1651 = tested on: NCI-H1651
Method in brief: as §1

NCI-H1793 = tested on: NCI-H1793
Method in brief: as §1

NCI-H1944 = tested on: NCI-H1944
Method in brief: as §1

NCI-H1993 = tested on: NCI-H1993
Method in brief: as §1

NCI-H2085 = tested on: NCI-H2085
Method in brief: as §1

NCI-H2087 = tested on: NCI-H2087
Method in brief: as §1

NCI-H23 = tested on: NCI-H23
Method in brief: as §1

NCI-H2405 = tested on: NCI-H2405
Method in brief: as §1

NCI-H322M = tested on: NCI-H322M
Method in brief: as §1

NCI-H520 = tested on: NCI-H520
Method in brief: as §1

NCI-H650 = tested on: NCI-H650
Method in brief: as §1

SK-MES-1 = tested on: SK-MES-1
Method in brief: as §1

UMC-11 = tested on: UMC-11
Method in brief: as §1

Compound: COc1cc(N2CCC(C(N)=O)CC2)ccc1Nc1nc(N)c(Cl)c(Nc2ccccc2S(=O)(=O)C(C)C)n1 [HG-5-88-01] + Nc1nc2[nH]cc(CCc3ccc(C(=O)N[C@@H](CCC(=O)O)C(=O)O)cc3)c2c(=O)[nH]1 [Pemetrexed] (partner 0.2 µM)
- relative viability (ChaGo-K-1; first compound 0.04 µM): 0.262
- relative viability (ChaGo-K-1; first compound 0.1265 µM): 0.271
- relative viability (ChaGo-K-1; first compound 0.4 µM): 0.24
- relative viability (ChaGo-K-1; first compound 1.265 µM): 0.266
- relative viability (ChaGo-K-1; first compound 4 µM): 0.258
- relative viability (EMC-BAC-2; first compound 0.04 µM): 0.416
- relative viability (EMC-BAC-2; first compound 0.1265 µM): 0.432
- relative viability (EMC-BAC-2; first compound 0.4 µM): 0.385
- relative viability (EMC-BAC-2; first compound 1.265 µM): 0.461
- relative viability (EMC-BAC-2; first compound 4 µM): 0.477
- relative viability (EPLC-272H; first compound 0.04 µM): 0.341
- relative viability (EPLC-272H; first compound 0.1265 µM): 0.262
- relative viability (EPLC-272H; first compound 0.4 µM): 0.319
- relative viability (EPLC-272H; first compound 1.265 µM): 0.307
- relative viability (EPLC-272H; first compound 4 µM): 0.0795
- relative viability (H3255; first compound 0.04 µM): 0.578
- relative viability (H3255; first compound 0.1265 µM): 0.571
- relative viability (H3255; first compound 0.4 µM): 0.54
- relative viability (H3255; first compound 4 µM): 0.501
- relative viability (HCC-44; first compound 0.04 µM): 0.596
- relative viability (HCC-44; first compound 0.1265 µM): 0.662
- relative viability (HCC-44; first compound 0.4 µM): 0.538
- relative viability (HCC-44; first compound 1.265 µM): 0.699
- relative viability (HCC-44; first compound 4 µM): 0.69
- relative viability (HCC-827; first compound 0.04 µM): 0.24
- relative viability (HCC-827; first compound 0.1265 µM): 0.262
- relative viability (HCC-827; first compound 0.4 µM): 0.216
- relative viability (HCC-827; first compound 1.265 µM): 0.141
- relative viability (HCC-827; first compound 4 µM): 0.193
- relative viability (LCLC-103H; first compound 0.04 µM): 0.443
- relative viability (LCLC-103H; first compound 0.1265 µM): 0.505
- relative viability (LCLC-103H; first compound 0.4 µM): 0.462
- relative viability (LCLC-103H; first compound 1.265 µM): 0.492
- relative viability (LCLC-103H; first compound 4 µM): 0.33
- relative viability (LCLC-97TM1; first compound 0.04 µM): 0.208
- relative viability (LCLC-97TM1; first compound 0.1265 µM): 0.179
- relative viability (LCLC-97TM1; first compound 0.4 µM): 0.132
- relative viability (LCLC-97TM1; first compound 1.265 µM): 0.155
- relative viability (LCLC-97TM1; first compound 4 µM): 0.131
- relative viability (NCI-H1355; first compound 0.04 µM): 1.11
- relative viability (NCI-H1355; first compound 0.1265 µM): 1.03
- relative viability (NCI-H1355; first compound 0.4 µM): 0.726
- relative viability (NCI-H1355; first compound 1.265 µM): 1.04
- relative viability (NCI-H1355; first compound 4 µM): 0.685
- relative viability (NCI-H1395; first compound 0.04 µM): 0.825
- relative viability (NCI-H1395; first compound 0.1265 µM): 0.923
- relative viability (NCI-H1395; first compound 0.4 µM): 0.751
- relative viability (NCI-H1395; first compound 1.265 µM): 1.05
- relative viability (NCI-H1395; first compound 4 µM): 0.753
- relative viability (NCI-H1563; first compound 0.04 µM): 0.798
- relative viability (NCI-H1563; first compound 0.1265 µM): 0.754
- relative viability (NCI-H1563; first compound 0.4 µM): 0.767
- relative viability (NCI-H1563; first compound 1.265 µM): 0.652
- relative viability (NCI-H1563; first compound 4 µM): 0.973
- relative viability (NCI-H1651; first compound 0.04 µM): 0.499
- relative viability (NCI-H1651; first compound 0.1265 µM): 0.586
- relative viability (NCI-H1651; first compound 0.4 µM): 0.622
- relative viability (NCI-H1651; first compound 1.265 µM): 0.538
- relative viability (NCI-H1651; first compound 4 µM): 0.614
- relative viability (NCI-H1793; first compound 0.04 µM): 0.829
- relative viability (NCI-H1793; first compound 0.1265 µM): 0.8
- relative viability (NCI-H1793; first compound 0.4 µM): 0.828
- relative viability (NCI-H1793; first compound 1.265 µM): 0.692
- relative viability (NCI-H1793; first compound 4 µM): 0.522
- relative viability (NCI-H1944; first compound 0.04 µM): 0.642
- relative viability (NCI-H1944; first compound 0.1265 µM): 0.695
- relative viability (NCI-H1944; first compound 0.4 µM): 0.643
- relative viability (NCI-H1944; first compound 1.265 µM): 0.615
- relative viability (NCI-H1944; first compound 4 µM): 0.564
- relative viability (NCI-H1993; first compound 0.04 µM): 0.56
- relative viability (NCI-H1993; first compound 0.1265 µM): 0.577
- relative viability (NCI-H1993; first compound 0.4 µM): 0.552
- relative viability (NCI-H1993; first compound 4 µM): 0.554
- relative viability (NCI-H2085; first compound 0.04 µM): 0.911
- relative viability (NCI-H2085; first compound 0.1265 µM): 0.986
- relative viability (NCI-H2085; first compound 0.4 µM): 0.864
- relative viability (NCI-H2085; first compound 1.265 µM): 0.861
- relative viability (NCI-H2085; first compound 4 µM): 0.698
- relative viability (NCI-H2087; first compound 0.04 µM): 0.664
- relative viability (NCI-H2087; first compound 0.1265 µM): 0.689
- relative viability (NCI-H2087; first compound 0.4 µM): 0.67
- relative viability (NCI-H2087; first compound 1.265 µM): 0.651
- relative viability (NCI-H2087; first compound 4 µM): 0.715
- relative viability (NCI-H23; first compound 0.04 µM): 0.678
- relative viability (NCI-H23; first compound 0.1265 µM): 0.77
- relative viability (NCI-H23; first compound 0.4 µM): 0.592
- relative viability (NCI-H23; first compound 1.265 µM): 0.56
- relative viability (NCI-H23; first compound 4 µM): 0.385
- relative viability (NCI-H2405; first compound 0.04 µM): 0.965
- relative viability (NCI-H2405; first compound 0.1265 µM): 1.16
- relative viability (NCI-H2405; first compound 0.4 µM): 0.973
- relative viability (NCI-H2405; first compound 1.265 µM): 0.852
- relative viability (NCI-H2405; first compound 4 µM): 0.954
- relative viability (NCI-H322M; first compound 0.04 µM): 0.638
- relative viability (NCI-H322M; first compound 0.1265 µM): 0.536
- relative viability (NCI-H322M; first compound 0.4 µM): 0.607
- relative viability (NCI-H322M; first compound 1.265 µM): 0.55
- relative viability (NCI-H322M; first compound 4 µM): 0.509
- relative viability (NCI-H520; first compound 0.04 µM): 0.604
- relative viability (NCI-H520; first compound 0.1265 µM): 0.592
- relative viability (NCI-H520; first compound 0.4 µM): 0.454
- relative viability (NCI-H520; first compound 1.265 µM): 0.737
- relative viability (NCI-H520; first compound 4 µM): 0.61
- relative viability (NCI-H650; first compound 0.04 µM): 0.985
- relative viability (NCI-H650; first compound 0.1265 µM): 0.91
- relative viability (NCI-H650; first compound 0.4 µM): 0.844
- relative viability (NCI-H650; first compound 1.265 µM): 0.896
- relative viability (NCI-H650; first compound 4 µM): 0.476
- relative viability (SK-MES-1; first compound 0.04 µM): 0.922
- relative viability (SK-MES-1; first compound 0.1265 µM): 0.923
- relative viability (SK-MES-1; first compound 0.4 µM): 0.827
- relative viability (SK-MES-1; first compound 1.265 µM): 0.853
- relative viability (SK-MES-1; first compound 4 µM): 1
- relative viability (UMC-11; first compound 0.04 µM): 0.797
- relative viability (UMC-11; first compound 0.1265 µM): 0.772
- relative viability (UMC-11; first compound 0.4 µM): 0.844
- relative viability (UMC-11; first compound 1.265 µM): 0.827
- relative viability (UMC-11; first compound 4 µM): 0.789
